Data as given in US20200390100A1, “SUBSTITUTED N-HETEROCYCLYL- AND N-HETEROARYL-TETRAHYDROPYRIMIDINONES AND THE SALTS THEREOF, AND THE USE OF SAME AS HERBICIDAL ACTIVE SUBSTANCES” (Bayer Aktiengesellschaft, priority 2017, published 2020).

Key:
photosystem II (PS II) = molecular target: T1, photosystem II (PS II) (Spinacia oleracea, UniProt P69560); assay: Measurement of PS II activity in thylakoid membranes (DCPIP reduction); assay type: biochemical, spinach; details: PS II activity in spinach thylakoid membranes, Table E1; read-out: Effect
T1 construct: the chloroplasts were osmotically ruptured and the thylakoid membranes were then obtained by centrifugation; from tissue; host or cells: fresh spinach leaves; thylakoid membrane preparation from isolated chloroplasts
Experimental: Cooled fresh spinach leaves were comminuted and homogenized in 50 mM phosphate buffer, pH 6.8. 10 mM KCl, 0.34 M sucrose (sucrose buffer) (blender, 1 g of plant material/ml). The homogenate was subsequently filtered through 4 layers of Miracloth and the chloroplasts were isolated by centrifugation, i.e. 10 min of centrifugation at 4400×g (4° C.). The sediment was suspended in 25 ml of sucrose buffer and re-centrifuged for 10 min at 4400×g (4° C.). The sediment was then suspended in 40 ml of 50 mM phosphate buffer, pH 6.8, 10 mM KCl, without sucrose. In this step, the chloroplasts were osmotically ruptured and the thylakoid membranes were then obtained by centrifugation (10 min, 4400×g, 4° C.). The membrane sediment was finally suspended in about 20 ml of 50 mM phosphate buffer, pH 6.8, 10 mM KCl. Following protein determination and activity determination, the membrane suspension was divided into aliquots and frozen in liquid nitrogen. The aliquots were stored at −80° C. Under these conditions, the photosystem II preparation was storage stable for at least three months. The activity determination of photosystem II (PS II) was then carried out using the following test principle: The electron transfer from PS II to an artificial electron acceptor, 2,6-dichlorophenolindophenol (DCPIP), was measured with exposure to light. The concentration of the blue oxidized form of DCPIP was determined spectrophotometrically at wavelength λ=595 nm. […] The activity determination is carried out in microtiter plates (96 cavities) in a reaction volume of 200 μl. Here, 155 μl of dilute membrane suspension were initially charged in 50 mM of phosphate buffer, pH 6.8, 10 mM KCl. Depending on the activity of the PS II preparation, the dilution was adjusted such that the measurement of the decrease in absorption (λ=595 nm) was linear for at least 10 min. In each case 5 μl solutions of the test compounds of a concentration of 100 μM in DMSO were added to the enzyme suspension; controls contained 5 μl of DMSO; the final concentration of DMSO in the reaction batch was thus 2.5% (v/v); this concentration had no adverse effect on the enzymatic activity. On each microtiter plate, a known PS II inhibitor, for example metribuzin, was used as standard, which allowed the quality of the PS II test to be assessed. The reaction was started by addition of 40 μl DCPIP solution (600 μM in distilled water); the final concentration of DCPIP was 120 μM. Measurement of absorption is carried out over a period of 10 min at 22° C. and with exposure to light. Using metribuzin as comparative substance, the results for the efficacy of the compounds of the general formula (I) at 100 μM are stated in the table below using the following classification: ++++(inhibition≥90%), +++(90%>inhibition≥70%), ++(70%>inhibition≥50%), +(50%>inhibition≥30%).

Stellaria media [1] = assay: Pre-emergence herbicidal action, greenhouse, 320 g/ha; assay type: in vivo; details: application rate 320 g/ha, scored visually after about 3 weeks vs untreated controls
In short: (§1)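 Soil-surface application onto covered seeds; WP or EC formulation with 0.5% additive in aqueous spray; visual rating at ~3 weeks, 0–100% vs untreated plants.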

Amaranthus retroflexus [2] = assay: as above; assay type: in vivo; details: application rate 320 g/ha, scored visually after about 3 weeks vs untreated controls
In short: as §1

Polygonum convolvulus [3] = assay: as above; assay type: in vivo; details: application rate 320 g/ha, scored visually after about 3 weeks vs untreated controls
In short: as §1

Hordeum murinum = assay: as above; assay type: in vivo; details: application rate 320 g/ha, Table B14
In short: as §1

Alopecurus myosuroides = assay: as above; assay type: in vivo; details: application rate 320 g/ha, scored visually after about 3 weeks vs untreated controls
In short: as §1

Avena fatua = assay: as above; assay type: in vivo; details: application rate 320 g/ha, scored visually after about 3 weeks vs untreated controls
In short: as §1

Abutilon theophrasti [4] = assay: as above; assay type: in vivo; details: application rate 320 g/ha, scored visually after about 3 weeks vs untreated controls
In short: as §1

Setaria viridis [5] = assay: as above; assay type: in vivo; details: application rate 320 g/ha, Table B11
In short: as §1

Viola tricolor [6] = assay: as above; assay type: in vivo; details: application rate 320 g/ha, Table B8
In short: as §1

Pharbitis purpurea [7] = assay: as above; assay type: in vivo; details: application rate 320 g/ha, Table B12
In short: as §1

Matricaria inodora [8] = assay: as above; assay type: in vivo; details: application rate 320 g/ha, scored visually after about 3 weeks vs untreated controls
In short: as §1

Echinochloa crus-galli [9] = assay: as above; assay type: in vivo; details: application rate 320 g/ha, scored visually after about 3 weeks vs untreated controls
In short: as §1

Stellaria media [10] = assay: Post-emergence herbicidal action, greenhouse, 320 g/ha; assay type: in vivo; details: application rate 320 g/ha, rated visually after about 3 weeks vs untreated controls
Experimental: (§2) Seeds of monocotyledonous and dicotyledonous weeds and crop plants were placed in sandy loam in plastic or wood-fiber pots, covered with soil and cultivated in a greenhouse under controlled growth conditions. 2 to 3 weeks after sowing, the test plants were treated at the one-leaf stage. The compounds of the invention, formulated in the form of wettable powders (WP) or as emulsion concentrates (EC), were then sprayed onto the green parts of the plants as aqueous suspension or emulsion with addition of 0.5% additive at a water application rate of […] (converted). After the test plants had been kept in the greenhouse under optimum growth conditions for about 3 weeks, the activity of the preparations was rated visually in comparison to untreated controls. For example, 100% activity=the plants have died, 0% activity=like control plants. Tables A1 to A14 below show the effects of selected compounds of the general formula (I) according to Tables 1.1 to 1.150 on various harmful plants and at an application rate corresponding to 320 g/ha, which were obtained by the experimental procedure mentioned above.

Amaranthus retroflexus [11] = assay: as above; assay type: in vivo; details: application rate 320 g/ha, rated visually after about 3 weeks vs untreated controls
Experimental: as §2

Polygonum convolvulus [12] = assay: as above; assay type: in vivo; details: application rate 320 g/ha, rated visually after about 3 weeks vs untreated controls
Experimental: as §2

Abutilon theophrasti [13] = assay: as above; assay type: in vivo; details: application rate 320 g/ha, rated visually after about 3 weeks vs untreated controls
Experimental: as §2

Viola tricolor [14] = assay: as above; assay type: in vivo; details: application rate 320 g/ha, rated visually after about 3 weeks vs untreated controls
Experimental: as §2

Matricaria inodora [15] = assay: as above; assay type: in vivo; details: application rate 320 g/ha, rated visually after about 3 weeks vs untreated controls
Experimental: as §2

Digitaria sanguinalis = assay: as above; assay type: in vivo; details: application rate 320 g/ha, rated visually after about 3 weeks vs untreated controls
Experimental: as §2

Lolium rigidum = assay: Herbicidal pre-emergence action (Part 2), 1280 g/ha; assay type: in vivo; details: application rate 1280 g/ha, scored visually after about 3 weeks, Table D2
In short: (§3)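 Visual percent activity, scored roughly 3 weeks after treatment relative to untreated pots (100% meaning plants died), is reported. Compounds as wettable powders or emulsion concentrates with 0.5% additive were applied to the soil surface over freshly sown seeds at 600 L water/ha.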

Stellaria media [16] = assay: as above; assay type: in vivo; details: application rate 1280 g/ha, scored visually after about 3 weeks, Table D8
In short: as §3

Amaranthus retroflexus [17] = assay: as above; assay type: in vivo; details: application rate 1280 g/ha, scored visually after about 3 weeks, Table D6
In short: as §3

Poa annua [18] = assay: as above; assay type: in vivo; details: application rate 1280 g/ha, scored visually after about 3 weeks, Table D3
In short: as §3

Abutilon theophrasti [19] = assay: as above; assay type: in vivo; details: application rate 1280 g/ha, scored visually after about 3 weeks, Table D5
In short: as §3

Setaria viridis [20] = assay: as above; assay type: in vivo; details: application rate 1280 g/ha, scored visually after about 3 weeks, Table D4
In short: as §3

Matricaria inodora [21] = assay: as above; assay type: in vivo; details: application rate 1280 g/ha, scored visually after about 3 weeks, Table D7
In short: as §3

Echinochloa crus-galli [22] = assay: as above; assay type: in vivo; details: application rate 1280 g/ha, scored visually after about 3 weeks, Table D1
In short: as §3

Pharbitis purpurea [23] = assay: Post-emergence herbicidal action, greenhouse, 320 g/ha; assay type: in vivo; details: application rate 320 g/ha, rated visually after about 3 weeks vs untreated controls
Experimental: as §2

Setaria viridis [24] = assay: as above; assay type: in vivo; details: application rate 320 g/ha, rated visually after about 3 weeks vs untreated controls
Experimental: as §2

Amaranthus retroflexus [25] = assay: Herbicidal post-emergence action (Part 2), 1280 g/ha; assay type: in vivo; details: application rate 1280 g/ha, rated visually after about 3 weeks, Table C5
In short: (§4)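 Post-emergence greenhouse test: one-leaf-stage weeds (2–3 wk after sowing, sandy loam) sprayed onto green parts; WP/EC in water + 0.5% additive, 600 L/ha. Visual rating ~3 wk, 0–100% vs untreated.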

Abutilon theophrasti [26] = assay: as above; assay type: in vivo; details: application rate 1280 g/ha, rated visually after about 3 weeks, Table C4
In short: as §4

Echinochloa crus-galli [27] = assay: as above; assay type: in vivo; details: post-emergence (Part 2), application rate 1280 g/ha, rated visually after about 3 weeks vs untreated controls
In short: as §4

Stellaria media [28] = assay: as above; assay type: in vivo; details: application rate 1280 g/ha, rated visually after about 3 weeks, Table C7
In short: as §4

Poa annua [29] = assay: as above; assay type: in vivo; details: application rate 1280 g/ha, rated visually after about 3 weeks, Table C2
In short: as §4

Matricaria inodora [30] = assay: as above; assay type: in vivo; details: application rate 1280 g/ha, rated visually after about 3 weeks, Table C6
In short: as §4

SMILES	Amaranthus retroflexus (efficacy in %) (Amaranthus retroflexus [11]) [%]	Abutilon theophrasti (efficacy in %) (Abutilon theophrasti [13]) [%]	Lolium rigidum (Lolium rigidum) [%]	Stellaria media (Stellaria media [16]) [%]	Amaranthus retroflexus (Amaranthus retroflexus [17]) [%]	Poa Annua (Poa annua [18]) [%]	Abutilon theophrasti (Abutilon theophrasti [19]) [%]	Setaria viridis (Setaria viridis [20]) [%]	Matricaria inodora (Matricaria inodora [21]) [%]	Echinochloa crus-galli (Echinochloa crus-galli [22]) [%]	Amaranthus retroflexus (Amaranthus retroflexus [25]) [%]	further results
CN1CCC(O)N(c2cc(C(C)(C)C)on2)C1=O (centres unmarked) [I.1-162, 3-(5-tert-Butyl-1,2-oxazol-3-yl)-4-hydroxy-1-methyltetrahydropyrimidin-2(1H)-one]	–	–	–	–	–	–	–	–	–	–	–	inhibition at 100 µM (photosystem II (PS II)): > 90%; Stellaria media (efficacy in %) (Stellaria media [1]): 90%; Amaranthus retroflexus (efficacy in %) (Amaranthus retroflexus [2]): 100%; Polygonum convolvulus (efficacy in %) (Polygonum convolvulus [3]): 90%; Hordeum murinum (efficacy in %) (Hordeum murinum): 90%; Alopecurus myosuroides (efficacy in %) (Alopecurus myosuroides): 90%; Avena fatua (efficacy in %) (Avena fatua): 90%; Abutilon theophrasti (efficacy in %) (Abutilon theophrasti [4]): 100%; Setaria viridis (efficacy in %) (Setaria viridis [5]): 90%; Viola tricolor (efficacy in %) (Viola tricolor [6]): 90%; Pharbitis purpurea (efficacy in %) (Pharbitis purpurea [7]): 80%; Matricaria inodora (efficacy in %) (Matricaria inodora [8]): 100%; Echinochloa crus-galli (efficacy in %) (Echinochloa crus-galli [9]): 80%
CCC(=O)OC1CC2CCCN2C(=O)N1c1cc(C(C)(C)C)on1 (centres unmarked) [I.123-162]	100	100	100	100	100	100	100	100	100	100	–	Stellaria media (efficacy in %) (Stellaria media [10]): 100%; Polygonum convolvulus (efficacy in %) (Polygonum convolvulus [12]): 100%; Viola tricolor (efficacy in %) (Viola tricolor [14]): 100%; Matricaria inodora (efficacy in %) (Matricaria inodora [15]): 80%; Digitaria sanguinalis (efficacy in %) (Digitaria sanguinalis): 100%
CC(C)(C)c1cc(N2C(=O)N3CCCC3CC2O)no1 (centres unmarked) [I.121-162]	100	80	90	100	100	100	100	100	100	100	–	Pharbitis purpurea (efficacy in %) (Pharbitis purpurea [23]): 80%
CN1CC(F)(F)C(O)N(c2cc(C(C)(C)C)on2)C1=O (centres unmarked) [I.141-162]	90	100	–	–	–	–	–	–	–	–	–	Stellaria media (efficacy in %) (Stellaria media [10]): 100%; Setaria viridis (efficacy in %) (Setaria viridis [24]): 100%; Matricaria inodora (efficacy in %) (Matricaria inodora [15]): 80%; Digitaria sanguinalis (efficacy in %) (Digitaria sanguinalis): 100%; Stellaria media (efficacy in %) (Stellaria media [1]): 100%; Amaranthus retroflexus (efficacy in %) (Amaranthus retroflexus [2]): 100%; Polygonum convolvulus (efficacy in %) (Polygonum convolvulus [3]): 90%; Avena fatua (efficacy in %) (Avena fatua): 80%; Abutilon theophrasti (efficacy in %) (Abutilon theophrasti [4]): 90%; Viola tricolor (efficacy in %) (Viola tricolor [6]): 90%
CC(C)CC(=O)OC1CCN(C)C(=O)N1c1cc(C(C)(C)C)no1 (centres unmarked) [I.7-290]	–	–	–	100	100	90	100	–	100	–	100	Abutilon theophrasti (Abutilon theophrasti [26]): 100%; Echinochloa crus-galli (Echinochloa crus-galli [27]): 100%
CC(=O)OC1CCN(C)C(=O)N1c1cc(C(F)(F)F)ccn1 (centres unmarked) [I.2-449]	–	–	90	100	100	100	–	–	100	–	100	Stellaria media (Stellaria media [28]): 100%
CCCC(=O)OC1CC2CCCN2C(=O)N1c1cc(C(C)(C)C)on1 (centres unmarked) [I.126-162]	–	–	100	100	100	100	100	100	100	100	100	Stellaria media (Stellaria media [28]): 100%; Poa Annua (Poa annua [29]): 100%; Abutilon theophrasti (Abutilon theophrasti [26]): 100%; Matricaria inodora (Matricaria inodora [30]): 100%; Echinochloa crus-galli (Echinochloa crus-galli [27]): 90%
